# Values of other authors as cited in US11602517B2, “Pharmaceutical composition, comprising polmacoxib and pregabalin, for treatment of pain” (CRYSTALGENOMICS, INC., priority 2018, dated 2023).
# Tests used:
# [1] = white or light yellow crystalline powder
smiles,measurement,setting,value
"CC(C)C[C@H](CN)CC(=O)O [Pregabalin, (S)-(+)-3-(aminomethyl)-5-methyl-hexanoic acid]",average absorption time,absorbed from the upper part of the small intestine,6 h
same,time to reach maximum blood concentration,absorption in the body,≤ 1.3 h
same,bioavailability,in vivo,about 90%
same,solubility in water,[1],soluble in water
